The values below come from PMC7807415 (Toxicology letters, 2020).

Series [1] in a line: FAERS search for hepatobiliary disorder cases involving meloxicam. Set-up: species or system human.
Series [2] concerns P450 activity in human liver microsomes (HLM150). Description: Inhibitor phenotyping of bioactivation in human liver microsomes. The series is classed as in vitro ADME. On the technique in general: Microsomes from liver hold many membrane-bound enzymes, among them those of drug oxidation.
The nature of series [3]: BJC HealthCare electronic health record cohort: DILI hospitalizations. Set-up: species or system human. The note with it: of 2800 DILI hospitalizations; 4570 hospitalizations prescribed meloxicam.
A further series deals with T1, CYP1A2 (Homo sapiens, UniProt P05177).
T1 sequence (P05177 1-516): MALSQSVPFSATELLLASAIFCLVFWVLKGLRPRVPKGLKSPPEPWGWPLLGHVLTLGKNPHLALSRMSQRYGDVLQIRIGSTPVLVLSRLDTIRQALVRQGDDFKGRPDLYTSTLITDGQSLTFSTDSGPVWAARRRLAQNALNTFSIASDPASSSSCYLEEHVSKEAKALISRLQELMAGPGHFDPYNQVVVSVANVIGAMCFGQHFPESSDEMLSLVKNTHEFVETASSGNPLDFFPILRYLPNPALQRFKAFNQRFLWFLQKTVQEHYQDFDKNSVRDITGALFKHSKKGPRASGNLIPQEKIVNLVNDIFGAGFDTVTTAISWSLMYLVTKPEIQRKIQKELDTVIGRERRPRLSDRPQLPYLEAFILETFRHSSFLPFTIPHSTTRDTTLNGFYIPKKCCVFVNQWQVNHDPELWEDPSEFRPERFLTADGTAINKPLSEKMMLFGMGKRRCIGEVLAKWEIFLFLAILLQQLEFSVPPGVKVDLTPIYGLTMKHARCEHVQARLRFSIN
The note with it: pH 7.4.

The conditions of series [4]: patients; ref Gschwend et al., 2007; cited from earlier work.
The target of a further series is CYP2C19 (Homo sapiens, UniProt P33261). The note with it: 400 µM sudoxicam, 100 nM CYP2C19, 30 min.
A further series has as its target CYP3A4 (Homo sapiens, UniProt P08684). As to conditions: 400 µM sudoxicam, 100 nM CYP3A4, 30 min.
Substrate in series [5]: Cc1cnc(NC(=O)C2=C(O)c3ccccc3S(=O)(=O)N2C)s1
The experiment in a line: cells, lysate or membranes named. The note with it: other: meloxicam -> methylglyoxal (bioactivation), recombinant CYP 1A2; pH 7.4.

Substrate in series [6]: CN1C(C(=O)Nc2nccs2)=C(O)c2ccccc2S1(=O)=O
The experiment in a line: cells, lysate or membranes named. The note with it: other: sudoxicam -> glyoxal (bioactivation), pH 7.4.

Several values for one entry are separate records, joined by “and”; a condition that tells them apart may be missing. Equal entries are not always repeated.

Sequence of CYP3A4 (P08684 whole entry): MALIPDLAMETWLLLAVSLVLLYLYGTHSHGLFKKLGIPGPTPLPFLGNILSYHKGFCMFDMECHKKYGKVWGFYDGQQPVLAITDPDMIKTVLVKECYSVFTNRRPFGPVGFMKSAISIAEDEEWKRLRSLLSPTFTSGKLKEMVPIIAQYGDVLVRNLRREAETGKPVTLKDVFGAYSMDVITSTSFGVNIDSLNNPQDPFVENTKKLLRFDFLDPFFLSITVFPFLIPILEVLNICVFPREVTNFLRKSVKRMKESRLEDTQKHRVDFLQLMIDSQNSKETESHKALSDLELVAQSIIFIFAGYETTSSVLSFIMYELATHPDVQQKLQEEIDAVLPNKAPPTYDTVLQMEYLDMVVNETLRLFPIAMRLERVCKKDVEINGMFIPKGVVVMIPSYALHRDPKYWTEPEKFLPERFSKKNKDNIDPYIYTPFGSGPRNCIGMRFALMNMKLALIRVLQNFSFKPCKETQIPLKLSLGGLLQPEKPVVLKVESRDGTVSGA

As to `COc1ccc2[nH]c([S+]([O-])Cc3ncc(C)c(OC)c3C)nc2c1` (stereo not drawn) [omeprazole], the “share of total applicable hepatobiliary cases with concomitant drug” value in series [1] (human) came to 6%.

`Nn1nnc2ccccc21` [ABT, 1-aminobenzotriazole]: the “blocked methylglyoxal formation (meloxicam bioactivation)” value in [2] (1 mM ABT, 10 µM meloxicam, HLM150 0.5 mg/mL, 40 min) is listed as 85%.

On to `Cc1cnc(NC(=O)C2=C(O)c3ccccc3S(=O)(=O)N2C)s1` [meloxicam], for which the “hepatobiliary disorder cases resulting in death” value in series [1] (FAERS, 1998 to 2020) worked out at 39 cases. In addition, in series [1] (human), the “serious cases of hepatobiliary disorders” value was 308 cases and the “total cases of hepatobiliary disorders” value was determined as 326 cases. Besides, the “DILI hospitalizations that had been prescribed meloxicam” value in series [3] amounted to 8 hospitalizations. For the same molecule, at CYP1A2, the “Scaled contribution of CYP1A2 (Vmax/Km)” value is given as 0.457 pmol/min/mg protein/µM substrate and the Vmax is 1000 ± 53 pmol/min/nmol protein. In addition, at CYP1A2 (recombinant enzyme, 30 min, 400 µM), the “methylglyoxal formation in recombinant P450 screen” value was “only recombinant P450 to form detectable levels of methylglyoxal”. Moreover, the “Percent contribution of CYP1A2” value at CYP1A2 (recombinant enzyme) is 100%. Besides, the maximum plasma levels in series [4] is listed as 3.2 µM.

With `Cc1c(OCC(F)(F)F)ccnc1C[S+]([O-])c1nc2ccccc2[nH]1` (stereo not drawn) [lansoprazole], in [1] (human), the “share of total applicable hepatobiliary cases with concomitant drug” value was determined as 6%.

As for `CN1C(C(=O)Nc2nccs2)=C(O)c2ccccc2S1(=O)=O` [sudoxicam, N-(2-thiazolyl)-4-hydroxy-2-methyl-2H-1,2-benzothiazine-3-carboxamide 1,1-dioxide], the “glyoxal formation in recombinant P450 screen” value on CYP2C19 and at CYP3A4 was “capable of catalyzing the reaction” throughout.

Take `O=c1cc(-c2ccccc2)oc2c1ccc1ccccc12` [ANF, α-naphthoflavone]: the “effect on glyoxal formation (sudoxicam bioactivation)” value in series [2] (16 µM ANF (CYP1A2 inhibitor), 10 µM sudoxicam, HLM150) is given as “increased significantly the extent of the reaction”.

B1: CYP1A2 (Homo sapiens) (protein)
chain: T1 sequence (P05177 1-516)
Consider B1, for which, in series [5], the Km (usually the concentration of substrate that gives half-maximal velocity) was 40 ± 7.5 µM.

B2: CYP2C19 (Homo sapiens) (protein)
chain: MDPFVVLVLCLSCLLLLSIWRQSSGRGKLPPGPTPLPVIGNILQIDIKDVSKSLTNLSKIYGPVFTLYFGLERMVVLHGYEVVKEALIDLGEEFSGRGHFPLAERANRGFGIVFSNGKRWKEIRRFSLMTLRNFGMGKRSIEDRVQEEARCLVEELRKTKASPCDPTFILGCAPCNVICSIIFQKRFDYKDQQFLNLMEKLNENIRIVSTPWIQICNNFPTIIDYFPGTHNKLLKNLAFMESDILEKVKEHQESMDINNPRDFIDCFLIKMEKEKQNQQSEFTIENLVITAADLLGAGTETTSTTLRYALLLLLKHPEVTAKVQEEIERVIGRNRSPCMQDRGHMPYTDAVVHEVQRYIDLIPTSLPHAVTCDVKFRNYLIPKGTTILTSLTSVLHDNKEFPNPEMFDPRHFLDEGGNFKKSNYFMPFSAGKRICVGEGLARMELFLFLTFILQNFNLKSLIDPKDLDTTPVVNGFASVPPFYQLCFIPV
For the molecule B2, in series [6] (recombinant CYP 2C19), the Michaelis-Menten constant (Km) is reported as 23 ± 5.2 µM.

B3: CYP2C8 (Homo sapiens) (protein)
chain: MEPFVVLVLCLSFMLLFSLWRQSCRRRKLPPGPTPLPIIGNMLQIDVKDICKSFTNFSKVYGPVFTVYFGMNPIVVFHGYEAVKEALIDNGEEFSGRGNSPISQRITKGLGIISSNGKRWKEIRRFSLTTLRNFGMGKRSIEDRVQEEAHCLVEELRKTKASPCDPTFILGCAPCNVICSVVFQKRFDYKDQNFLTLMKRFNENFRILNSPWIQVCNNFPLLIDCFPGTHNKVLKNVALTRSYIREKVKEHQASLDVNNPRDFIDCFLIKMEQEKDNQKSEFNIENLVGTVADLFVAGTETTSTTLRYGLLLLLKHPEVTAKVQEEIDHVIGRHRSPCMQDRSHMPYTDAVVHEIQRYSDLVPTGVPHAVTTDTKFRNYLIPKGTTIMALLTSVLHDDKEFPNPNIFDPGHFLDKNGNFKKSDYFMPFSAGKRICAGEGLARMELFLFLTTILQNFNLKSVDDLKNLNTTAVTKGIVSLPPSYQICFIPV
B3: in series [6] (recombinant CYP 2C8), the Km is 5 µM and 4.6 ± 0.89 µM.
